Source: article PMC8286840, “Identifying SARS-CoV-2 antiviral compounds by screening for small molecule inhibitors of Nsp3 papain-like protease” (Biochemical Journal, 2021)
Where a name gives a salt, the structure may show the parent alone. Read-outs that look alike come from different tables or passages of the source.

How the values were obtained:
[1] = biological target: T1, SARS-CoV-2 PLpro (nsp3 1564–1878) (Severe acute respiratory syndrome coronavirus 2, UniProt P0DTD1); experiment: biochemical; design: FRET-quenched peptide (Pro3) cleavage by PLpro, 10 min pre-incubation, slope over 20 min, normalised to no-compound control; conditions: low concentration screen, read-out: % of control remaining
[2] = biological target: T1, SARS-CoV-2 PLpro (nsp3 1564–1878); experiment: biochemical; design: FRET-quenched peptide (Pro3) cleavage by PLpro, 10 min pre-incubation, slope over 20 min, normalised to no-compound control; conditions: high concentration screen, read-out: % of control remaining

`CCCCCCCCCCCCCC/C(C(=O)O)=C(\C)C(=O)O` [Chaetomellic acid A] gave a remaining activity at 1.25 µM ([1]; Well no.=3141) of 95.8% and a remaining activity at 3.75 µM ([2]; Well no.=3141) of 96%.
Compound `CO[C@H]1[C@@H](O)[C@@H](C)O[C@H](O[C@H]2[C@H](Oc3cccc4c(O)c5c(=O)oc6ccc(C)c7c(=O)oc(c34)c5c67)O[C@H](C)[C@H](O)[C@@H]2O)[C@@H]1O` [Chartreusin] has a remaining activity at 1.25 µM ([1]; Well no.=3508) of 96.6% and a remaining activity at 3.75 µM ([2]; Well no.=3508) of 98.4%.
`COc1ccc2c(c[n+](C)c3c4cc5c(cc4ccc23)OCO5)c1OC` [Chelerythrine chloride] showed a remaining activity at 1.25 µM ([1]; Well no.=28) of 92.2%, a remaining activity at 1.25 µM ([1]; Well no.=2359) of 103% and a remaining activity at 3.75 µM ([2]; Well no.=28) of 92.4%. For the same compound, the remaining activity at 3.75 µM ([2]; Well no.=2359) was 105%.
`COc1ccc2c(c[n+](C)c3c4cc5c(cc4ccc23)OCO5)c1OC` [Chelerythrine] gave a remaining activity at 1.25 µM ([1]; Well no.=3533) of 102% and a remaining activity at 3.75 µM ([2]; Well no.=3533) of 101%.
`O=C(O)c1cc(=O)cc(C(=O)O)[nH]1` [Chelidamic acid] showed a remaining activity at 1.25 µM ([1]; Well no.=282) of 86.7% and a remaining activity at 3.75 µM ([2]; Well no.=282) of 90.8%.
For `O=C(O)c1cc(=O)cc(C(=O)O)o1` [Chelidonic acid], the remaining activity at 1.25 µM ([1]; Well no.=6682) was 102% and the remaining activity at 3.75 µM ([2]; Well no.=6682) was 102%.
`C[C@H](CCC(=O)O)[C@H]1CC[C@H]2[C@@H]3[C@H](O)C[C@@H]4C[C@H](O)CC[C@]4(C)[C@H]3CC[C@]12C` [Chenodeoxycholic Acid] was tested, and the remaining activity at 1.25 µM ([1]; Well no.=6483) was 99.2%, the remaining activity at 1.25 µM ([1]; Well no.=8382) was 96.1% and the remaining activity at 3.75 µM ([2]; Well no.=6483) was 101%. For the same compound, the remaining activity at 3.75 µM ([2]; Well no.=8382) was 88.2%.
Compound `Nc1nc(O)c(C2=C3C(=Nc4ccccc43)C(=O)NCC2)[nH]1` [Chk2 Inhibitor] has a remaining activity at 1.25 µM ([1]; Well no.=2389) of 103% and a remaining activity at 3.75 µM ([2]; Well no.=2389) of 103%.
`O=C(O)CCCc1ccc(N(CCCl)CCCl)cc1` [Chlorambucil] gave a remaining activity at 1.25 µM ([1]; Well no.=327) of 96.4%, a remaining activity at 1.25 µM ([1]; Well no.=2227) of 99.2% and a remaining activity at 3.75 µM ([2]; Well no.=327) of 98.4%. It also gave a remaining activity at 3.75 µM ([2]; Well no.=2227) of 98.3%.
Compound `O=C(N[C@H](CO)[C@H](O)c1ccc([N+](=O)[O-])cc1)C(Cl)Cl` [Chloramphenicol] has a remaining activity at 1.25 µM ([1]; Well no.=2223) of 96.9% and a remaining activity at 3.75 µM ([2]; Well no.=2223) of 96.6%.
Work on `CC(=O)O[C@]1(C(C)=O)CC[C@H]2[C@@H]3C=C(Cl)C4=CC(=O)CC[C@]4(C)[C@H]3CC[C@@]21C` [Chlormadinone Acetate] yielded a remaining activity at 1.25 µM ([1]; Well no.=2225) of 97.4% and a remaining activity at 3.75 µM ([2]; Well no.=2225) of 96.7%.
In the case of `CN1C(=O)CCS(=O)(=O)C1c1ccc(Cl)cc1` (centres unmarked) [Chlormezanone], the remaining activity at 1.25 µM ([1]; Well no.=679) is reported as 99% and the remaining activity at 3.75 µM ([2]; Well no.=679) is reported as 96.9%.
`CNC(=O)[C@H]1O[C@@H](n2cnc3c(NCc4cccc(I)c4)nc(Cl)nc32)[C@H](O)[C@@H]1O` [Chloro-IB-MECA] gave a remaining activity at 1.25 µM ([1]; Well no.=395) of 95.2% and a remaining activity at 3.75 µM ([2]; Well no.=395) of 95.2%.
`O=C(/C=C/c1ccc(O)c(O)c1)O[C@@H]1C[C@](O)(C(=O)O)C[C@@H](O)[C@H]1O` [Chlorogenic acid] gave a remaining activity at 1.25 µM ([1]; Well no.=3510) of 103% and a remaining activity at 3.75 µM ([2]; Well no.=3510) of 103%.
With `NS(=O)(=O)c1cc2c(cc1Cl)N=CNS2(=O)=O` [Chlorothiazide] the remaining activity at 1.25 µM ([1]; Well no.=82) was 99.4%, the remaining activity at 1.25 µM ([1]; Well no.=7460) was 96% and the remaining activity at 3.75 µM ([2]; Well no.=82) was 100%. The remaining activity at 3.75 µM ([2]; Well no.=7460) was 102%.
With `Oc1c(Cl)cc(Cl)c2cccnc12` [Chloroxine] the remaining activity at 1.25 µM ([1]; Well no.=5266) was 91.9% and the remaining activity at 3.75 µM ([2]; Well no.=5266) was 97.2%.
For `CN(C)CCC(c1ccc(Cl)cc1)c1ccccn1` (centres unmarked) [Chlorpheniramine (maleate)], the remaining activity at 1.25 µM ([1]; Well no.=7525) was 103% and the remaining activity at 3.75 µM ([2]; Well no.=7525) was 101%.
`CN(C)CCC(c1ccc(Cl)cc1)c1ccccn1` (centres unmarked) [Chlorpheniramine] gave a remaining activity at 1.25 µM ([1]; Well no.=2229) of 93.7% and a remaining activity at 3.75 µM ([2]; Well no.=2229) of 95.1%.
Work on `CN(C)CCOC(C)(c1ccccc1)c1ccc(Cl)cc1` (centres unmarked) [Chlorphenoxamine] yielded a remaining activity at 1.25 µM ([1]; Well no.=6219) of 102% and a remaining activity at 3.75 µM ([2]; Well no.=6219) of 100%.
`CN(C)CCCN1c2ccccc2Sc2ccc(Cl)cc21` [Chlorpromazine (hydrochloride)] was tested, and the remaining activity at 1.25 µM ([1]; Well no.=6227) was 95.8% and the remaining activity at 3.75 µM ([2]; Well no.=6227) was 96.3%.
`CN(C)CCCN1c2ccccc2Sc2ccc(Cl)cc21` [Chlorpromazine hydrochloride] was tested, and the remaining activity at 1.25 µM ([1]; Well no.=44) was 98.8% and the remaining activity at 3.75 µM ([2]; Well no.=44) was 96.9%.
With `CN(C)CCCN1c2ccccc2Sc2ccc(Cl)cc21` [Chlorpromazine.HCl] the remaining activity at 1.25 µM ([1]; Well no.=1596) was 104% and the remaining activity at 3.75 µM ([2]; Well no.=1596) was 103%.
Compound `CCCNC(=O)NS(=O)(=O)c1ccc(Cl)cc1` [Chlorpropamide] has a remaining activity at 1.25 µM ([1]; Well no.=331) of 96.9% and a remaining activity at 3.75 µM ([2]; Well no.=331) of 97.8%.
`CN(C)CC/C=C1/c2ccccc2Sc2ccc(Cl)cc21` [Chlorprothixene hydrochloride] showed a remaining activity at 1.25 µM ([1]; Well no.=45) of 89.3% and a remaining activity at 3.75 µM ([2]; Well no.=45) of 90.5%.
`CN(C)CC/C=C1/c2ccccc2Sc2ccc(Cl)cc21` [Chlorprothixene] gave a remaining activity at 1.25 µM ([1]; Well no.=5345) of 97.4%, a remaining activity at 1.25 µM ([1]; Well no.=6221) of 104% and a remaining activity at 3.75 µM ([2]; Well no.=5345) of 93.5%. It also gave a remaining activity at 3.75 µM ([2]; Well no.=6221) of 99.3%.
Work on `C[C@H](CCC(=O)O)[C@H]1CC[C@H]2[C@@H]3[C@H](O)C[C@@H]4C[C@H](O)CC[C@]4(C)[C@H]3C[C@H](O)[C@]12C` [Cholic acid] yielded a remaining activity at 1.25 µM ([1]; Well no.=6201) of 105%, a remaining activity at 1.25 µM ([1]; Well no.=8202) of 96.6% and a remaining activity at 3.75 µM ([2]; Well no.=6201) of 105%. It also gave a remaining activity at 3.75 µM ([2]; Well no.=8202) of 94.8%.
With `C[N+](C)(C)CCO` [Choline bromide] the remaining activity at 1.25 µM ([1]; Well no.=93) was 93.4% and the remaining activity at 3.75 µM ([2]; Well no.=93) was 97%.
In the case of `CO[C@@H]1[C@H](O)C[C@@H](O[C@@H]2C[C@H](Oc3cc4cc5c(c(O)c4c(O)c3C)C(=O)[C@@H](O[C@H]3C[C@@H](O[C@H]4C[C@@H](O[C@H]6C[C@](C)(O)[C@@H](OC(C)=O)[C@H](C)O6)[C@H](O)[C@@H](C)O4)[C@H](O)[C@@H](C)O3)[C@H]([C@H](OC)C(=O)[C@@H](O)[C@@H](C)O)C5)O[C@H](C)[C@@H]2OC(C)=O)O[C@@H]1C` [Chromomycin A3], the remaining activity at 1.25 µM ([1]; Well no.=3579) is reported as 103% and the remaining activity at 3.75 µM ([2]; Well no.=3579) is reported as 107%.
Compound `O=c1cc(-c2ccccc2)oc2cc(O)cc(O)c12` [Chrysine] has a remaining activity at 1.25 µM ([1]; Well no.=3276) of 101% and a remaining activity at 3.75 µM ([2]; Well no.=3276) of 100%.
`CC(C)C(=O)OCC(=O)[C@@]12O[C@H](C3CCCCC3)O[C@@H]1C[C@H]1[C@@H]3CCC4=CC(=O)C=C[C@]4(C)[C@H]3[C@@H](O)C[C@@]12C` [Ciclesonide] was tested, and the remaining activity at 1.25 µM ([1]; Well no.=7323) was 95.9% and the remaining activity at 3.75 µM ([2]; Well no.=7323) was 97.2%.
In the case of `Nc1ccn(C[C@@H](CO)OCP(=O)(O)O)c(=O)n1` [Cidofovir (Vistide)], the remaining activity at 1.25 µM ([1]; Well no.=5251) is reported as 98.3% and the remaining activity at 3.75 µM ([2]; Well no.=5251) is reported as 101%.
